From the NIST ThermoML archive (doi:10.1016/j.fluid.2006.07.007)

Settings: Liquid, Ebulliometric method (Recirculating still)

CCO [ethanol]
Settings | vapor or sublimation pressure [kPa]
292.33 K | 5.593
303.83 K | 10.86
311.14 K | 16.15
317.9 K | 22.84
323.09 K | 29.41
326.8 K | 35.11
330.56 K | 41.76
333.94 K | 48.61
337.18 K | 56.06
339.97 K | 63.2
342.3 K | 69.73
